For data set [1], the system named is BV-2. Description: Cytotoxicity against LPS-stimulated mouse BV-2 cells assessed as reduction in cell viability at 20 uM measured after 24 hrs by MTT assay relative to control. The data set is classed as cell-based. As to conditions: bv-2, 24 h. (Tetrazolium dyes change colour on reduction, which living cells bring about.)
A short description of data set [2]: Inhibition of LPS-induced NO production in mouse BV-2 cells incubated for 24 hrs by Griess reagent based assay. The data set is classed as functional, cell-based. The conditions noted are these: for pEC50: Mus musculus, BV-2, 24 h, read-out: EC50; for EC50: bv-2. In general terms: The Griess reaction detects nitrite, a stable product of nitric oxide.
Data set [3] is described as follows: Inhibition of iNOS expression in LPS-stimulated mouse BV-2 cells at 10 uM measured after 24 hrs by western blot analysis relative to control. The data set is classed as functional. Background: A western blot detects proteins with antibodies after separation by electrophoresis.
Data set [4] can be described thus: Effective permeability of the compound in PBS/EtOH buffer (9:1) at […] after 10 hrs by HPLC-UV based PAMPA-BBB assay. It is filed as ADME. As to conditions: read-out: permeability; call rule not given here.
For data set [5], the system named is BV-2. The data set can be described thus: Antineuroinflammatory activity in LPS- stimulated mouse BV-2 cells assessed as fold increase in HO-1 expression at 10 uM measured after 24 hrs by immunoblotting analysis relative to control. It is filed as functional.

pEC50: −log10 of the molar value.

As usually defined, the pEC50 is −log10 of the EC50, conventionally taken in molar units. Take `C=C1C(=O)O[C@H]2[C@@H]1[C@H](OC(C)=O)C([C@@H](C)CCCOC(C)=O)=C(C)[C@H]2N=[N+]=[N-]`: the Activity with BV-2 [1] was 93.2%. The pEC50 in data set [2] is 5.17.
Taken in the same sequence, the figures for `COc1ccccc1C1=NO[C@]2(C1)C(=O)O[C@@H]1CC(C)=C([C@@H](C)CCCOC(C)=O)[C@@H](OC(C)=O)[C@@H]12` were 99.2% and below 4.30.
For orientation: inhibition means the relative decrease from the control value, in per cent. A low value points to a weak effect. In the case of `C=C1C(=O)O[C@@H]2CC(C)=C([C@@H](C)CCCOC(C)=O)[C@@H](OC(C)=O)[C@H]12`, in the data set with BV-2 [1], the Activity is on record as 66.5%. Further, the inhibition at 10 µM in data set [3] turned out to be 59.7%. Besides, in data set [2], the pEC50 was 5.20. The Papp at 10 h in data set [4] turned out to be 12.3 ×10⁻⁶ cm/s. The “fold change (FC)” value in the data set with BV-2 [5] was 4.
Regarding `C=C1C(=O)O[C@@H]2C[C@@]3(C)O[C@@]3([C@@H](C)CCCOC(C)=O)[C@@H](O)[C@H]12`, in the data set with BV-2 [1], the Activity is 93.4%. In data set [2], the negative logarithm of the EC50 (pEC50) was 5.19.
For `CC(=O)OCCC[C@H](C)C1=C(C)C[C@H]2OC(=O)[C@]3(CC(c4ccccc4[N+](=O)[O-])=NO3)[C@H]2[C@@H]1OC(C)=O`, the Activity with BV-2 [1] is reported as 97.1%. Further, in data set [2], the negative logarithm of the EC50 (pEC50) is below 4.30.
Taken in the same sequence, the figures for `C=C1C(=O)O[C@@H]2CC(CN3CCCC3)=C([C@@H](C)CCCOC(C)=O)[C@@H](OC(C)=O)[C@H]12` were 95.2% and 4.52.
Taken in the same sequence, the figures for `C=C1C(=O)O[C@H]2[C@@H]1[C@H](OC(C)=O)C([C@@H](C)CCCOC(C)=O)=C(C)[C@@H]2Br` were 96.1% and 5.04.
For the compound `CC(=O)OCCC[C@H](C)C1=C(C)C[C@H]2OC(=O)[C@]3(CC(c4c(F)c(F)c(F)c(F)c4F)=NO3)[C@H]2[C@@H]1OC(C)=O`, in the data set with BV-2 [1], the Activity turned out to be 92.2%. For the same compound, the negative-log EC50 (pEC50) in data set [2] was 4.79.
Regarding `CC(=O)OCCC[C@H](C)C1=C(C)C[C@H]2OC(=O)[C@]3(CC(c4ccc(F)cc4)=NO3)[C@H]2[C@@H]1OC(C)=O`, the Activity in the data set on BV-2 [1] amounted to 101.5%. In addition, in data set [2], the pEC50 was 4.41.
As to `C=C1C(=O)O[C@H]2[C@@H]1[C@H](OC(C)=O)C([C@@H](C)CCCOC(C)=O)=C(CBr)[C@@H]2Br`, in the data set with BV-2 [1], the Activity amounted to 96%. In addition, the negative logarithm of the EC50 (pEC50) in data set [2] is 4.95.
The like results for `CC(=O)OCCC[C@H](C)C1=C(C)C[C@H]2OC(=O)C(Cc3ccc(O)cc3)=C2[C@@H]1O` were, in that order, 90.1% and 4.80.
Taken in the same sequence, the figures for `C=C1C(=O)O[C@H]2[C@@H]1[C@H](OC(C)=O)C([C@@H](C)CCCOC(C)=O)=C(C)[C@@H]2c1ccccc1` were 91.7% and 5.35.
Consider `C#Cc1ccc(-c2cn([C@@H]3C(C)=C([C@@H](C)CCCOC(C)=O)[C@@H](OC(C)=O)[C@@H]4C(=C)C(=O)O[C@@H]43)nn2)cc1`, for which the Activity with BV-2 [1] was 38.5%. Moreover, in data set [2], the EC50 entry is “Not Active”.
For `CC(=O)OCCC[C@H](C)C1=C(C)C[C@H]2OC(=O)[C@]3(CC(c4ccc(N(C)C)cc4)=NO3)[C@H]2[C@@H]1OC(C)=O`, the Activity in the data set on BV-2 [1] came out at 9%. The negative logarithm of the EC50 (pEC50) in data set [2] was 4.54.
With `C=C1C(=O)O[C@@H]2CC(CN3CCOCC3)=C([C@@H](C)CCCOC(C)=O)[C@@H](OC(C)=O)[C@H]12`, the Activity in the data set on BV-2 [1] stood at 91.3%. In addition, the pEC50 in data set [2] was 4.84.
Take `C=C1C(=O)O[C@@H]2CC(CN3CCCCC3)=C([C@@H](C)CCCOC(C)=O)[C@@H](OC(C)=O)[C@H]12`: in the data set on BV-2 [1], the Activity came to 92.8%. Further, the negative logarithm of the EC50 (pEC50) in data set [2] is 4.74.
For `C=C1C(=O)O[C@H]2[C@@H]1[C@H](OC(C)=O)C([C@@H](C)CCCOC(C)=O)=C(C)[C@H]2N`, the Activity with BV-2 [1] worked out at 90.9%. For the same compound, the negative logarithm of the EC50 (pEC50) in data set [2] was 5.42.
Turning to `CC(=O)OCCC[C@H](C)C1=C(C)C[C@H]2OC(=O)[C@@H](C)[C@H]2[C@@H]1O`, the Activity in the data set with BV-2 [1] is listed as 101.2%. For the same compound, in data set [2], the pEC50 is below 4.30.
`CC(=O)OCCC[C@H](C)C1=C(C)C[C@H]2OC(=O)[C@]3(CC(c4ccccc4Br)=NO3)[C@H]2[C@@H]1OC(C)=O`: the Activity in the data set with BV-2 [1] was 98.6%. Besides, in data set [2], the negative-log EC50 (pEC50) was below 4.30.
Regarding `O=c1c(O)c(-c2ccc(O)c(O)c2)oc2cc(O)cc(O)c12` [QUERCETIN], the Activity in the data set with BV-2 [1] is on record as 98.1%. In data set [2], the pEC50 is 4.98.
With `CC(=O)OCCC[C@H](C)C1=C(C)C[C@H]2OC(=O)/C(=C/c3ccc(O)cc3)[C@H]2[C@@H]1O`, in the data set on BV-2 [1], the Activity came out at 102.5%. For the same compound, in data set [2], the pEC50 was 4.50.
Regarding `C=C1C(=O)O[C@H]2[C@@H]1[C@H](OC(C)=O)C([C@@H](C)CCCOC(C)=O)=C(C)[C@H]2n1cc(-c2ccccc2)nn1`, the Activity with BV-2 [1] is listed as 57.3%. In data set [2], the EC50 entry was “Not Active”.
As to `C=C1C(=O)O[C@@H]2CC(=C)C(Cl)([C@@H](C)CCCOC(C)=O)[C@@H](OC(C)=O)[C@H]12` (stereo partly specified), the Activity in the data set on BV-2 [1] is recorded as 90.9%. In addition, the pEC50 in data set [2] is 6.00.
On to `C=C1C(=O)O[C@H]2[C@@H]1[C@H](OC(C)=O)C([C@@H](C)CCCOC(C)=O)=C(C)[C@H]2n1cc(C(=O)OC)nn1`, for which, in the data set on BV-2 [1], the Activity was 63.8%. In data set [2], the EC50 entry was “Not Active”.
Turning to `CC(=O)OCCC[C@H](C)C1C(C)C[C@H]2OC(=O)C(C)[C@H]2[C@@H]1O` (mixture of isomers), the Activity in the data set with BV-2 [1] is reported as 98.5%. Moreover, the negative-log EC50 (pEC50) in data set [2] is below 4.30.
Turning to `NC(=O)N1c2ccccc2C=Cc2ccccc21` [CARBAMAZEPINE], in data set [4], the Papp at 10 h amounted to 10.7 ×10⁻⁶ cm/s.
Turning to `CC(=O)OCCC[C@H](C)C1=C(C)C[C@H]2OC(=O)[C@]3(CC(c4ccccc4)=NO3)[C@H]2[C@@H]1OC(C)=O`, the Activity with BV-2 [1] came to 96.6%. In addition, the negative-log EC50 (pEC50) in data set [2] was 4.48.
With `C=C1C(=O)O[C@@H]2C=C(C)C(Cl)([C@@H](C)CCCOC(C)=O)[C@@H](OC(C)=O)[C@H]12` (stereo partly specified), the Activity in the data set with BV-2 [1] is listed as 90.8%. Moreover, the negative-log EC50 (pEC50) in data set [2] is 5.70.
As for `C=C1C(=O)O[C@@H]2CC(C)=C([C@@H](C)CCCOC(C)=O)[C@@H](O)[C@H]12`, the Activity in the data set with BV-2 [1] was determined as 99.5%. The pEC50 in data set [2] is 4.90. Further, in data set [4], the Papp at 10 h amounted to 7.5 ×10⁻⁶ cm/s.
Take `C=C1C(=O)O[C@@H]2C[C@@]3(C)O[C@@]3([C@@H](C)CCCOC(C)=O)[C@@H](OC(C)=O)[C@H]12`: in the data set on BV-2 [1], the Activity is reported as 89.5%. Moreover, in data set [2], the pEC50 was 5.55.
Take `C=C1C(=O)O[C@@H]2CC(CN(CC)CC)=C([C@@H](C)CCCOC(C)=O)[C@@H](OC(C)=O)[C@H]12`: in the data set with BV-2 [1], the Activity is 94.1%. In addition, in data set [2], the pEC50 was 4.84.
In the case of `C=C1C[C@H]2OC(=O)C(=C)[C@H]2C=C1[C@@H](C)CCCOC(C)=O`, the Activity in the data set with BV-2 [1] came to 54.2%. Moreover, in data set [2], the EC50 result was “Not Active”.
As to `COc1ccc(C2=NO[C@]3(C2)C(=O)O[C@@H]2CC(C)=C([C@@H](C)CCCOC(C)=O)[C@@H](OC(C)=O)[C@@H]23)cc1`, in the data set with BV-2 [1], the Activity stood at 96.5%. In addition, the negative-log EC50 (pEC50) in data set [2] was below 4.30.
Turning to `CC(=O)OCCC[C@H](C)C1=C(C)C[C@H]2OC(=O)[C@]3(CC(c4ccc5ccccc5c4)=NO3)[C@H]2[C@@H]1OC(C)=O`, the Activity with BV-2 [1] came to 95.4%. In addition, the pEC50 in data set [2] is below 4.30.

The values above are taken from ChEMBL document CHEMBL4842343, “1,10-Seco-Eudesmane sesquiterpenoids as a new type of anti-neuroinflammatory agents by suppressing TLR4/NF-κB/MAPK pathways” (Eur J Med Chem, 2021).
